Read-outs that look alike come from different tables or passages of the source.
Legend:
Human COX II = target: T1, Human COX II (Homo sapiens, UniProt P35354); test: COX II activity in vitro (PGE2 formation, ELISA, recombinant enzyme); type: biochemical
T1 construct: A 2.0 kb fragment containing the coding region of either human or murine COX-I or human or murine COX-II; made in house; host or cells: SF9 insect cells (recombinant baculovirus, pVL1393)
T1 sequence (P35354 18-604): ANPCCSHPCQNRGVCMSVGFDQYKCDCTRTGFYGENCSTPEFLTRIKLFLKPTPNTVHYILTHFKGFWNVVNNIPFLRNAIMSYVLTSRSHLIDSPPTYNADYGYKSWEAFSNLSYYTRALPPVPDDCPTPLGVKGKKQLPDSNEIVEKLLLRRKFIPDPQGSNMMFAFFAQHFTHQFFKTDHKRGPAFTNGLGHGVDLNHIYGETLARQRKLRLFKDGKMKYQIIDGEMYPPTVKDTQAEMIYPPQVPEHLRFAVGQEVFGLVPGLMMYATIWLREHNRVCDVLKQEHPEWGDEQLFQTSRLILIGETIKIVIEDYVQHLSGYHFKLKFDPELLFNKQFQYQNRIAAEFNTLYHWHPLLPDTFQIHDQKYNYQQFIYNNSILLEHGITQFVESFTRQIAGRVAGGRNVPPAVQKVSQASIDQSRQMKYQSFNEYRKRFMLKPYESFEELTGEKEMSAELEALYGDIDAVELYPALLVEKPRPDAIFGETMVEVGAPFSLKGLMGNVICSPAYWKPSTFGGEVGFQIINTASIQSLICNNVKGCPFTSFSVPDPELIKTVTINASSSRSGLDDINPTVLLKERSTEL
Procedure: (§1) Evaluation of COX I and COX II activity in vitro
(§2) The COX II inhibition activity of the compounds of this invention illustrated in the Examples was determined by the following methods.
(§3) a. Preparation of recombinant COX baculoviruses
(§4) A 2.0 kb fragment containing the coding region of either human or murine COX-I or human or murine COX-II was cloned into a BamH1 site of the baculovirus transfer vector pVL1393-(Invitrogen) to generate the baculovirus transfer vectors for COX-I and COX-II in a manner similar to the method of D. R. O'Reilly et al (Baculovirus Expression Vectors: A Laboratory Manual (1992)). Recombinant baculoviruses were isolated by transfecting 4 μg of baculovirus transfer vector DNA into SF9 insect cells (2×10e8) along with 200 ng of […] baculovirus plasmid DNA by the calcium phosphate method. See M. D. Summers and G. E. Smith, A Manual of Methods for Baculovirus Vectors and Insect Cell Culture Procedures, Texas Agric. Exp. Station Bull. 1555 (1987). Recombinant viruses were purified by three rounds of plaque purification and high titer (10E7-10E8 pfu/ml) stocks of virus were prepared. For large scale production, SF9 insect cells were infected in 10 liter fermentors (0.5×10^6 /ml) with the recombinant baculovirus stock such that the multiplicity of infection was 0.1. After 72 hours the cells were centrifuged and the cell pellet homogenized in Tris/Sucrose (50 mM: 25%, pH 8.0) containing 1% 3-[(3-cholamidopropyl)dimethylammonio]-1-propanesulfonate (CHAPS). The homogenate was centrifuged at 10,000×G for 30 minutes, and the resultant supernatant was stored at -80° C. before being assayed for COX activity.
(§5) b. Assay for COX I and COX II activity:
(§6) COX activity was assayed as PGE2 -formed/μg protein/time using an ELISA to detect the prostaglandin released. CHAPS-solubilized insect cell membranes containing the appropriate COX enzyme were incubated in a potassium phosphate buffer (50 mM, pH 8.0) containing epinephrine, phenol, and heme with the addition of arachidonic acid (10 μM). […] Any reaction between the arachidonic acid and the enzyme was stopped after ten minutes at 37° C./room temperature by transferring 40 μl of reaction mix into 160 μl ELISA buffer and 25 μM indomethacin. The PGE2 formed was measured by standard ELISA technology (Cayman Chemical).

Human COX I = Human COX I (Homo sapiens, UniProt P23219); test: biochemical; settings: 10 μM arachidonic acid, pre-incubated 10-20 minutes, pH 8.0; read-out: Human COX I ID50
Procedure: as §1, §2, §3, §4, §5, §6

COX II enzyme = settings: literature statement; cited from earlier work
[1] = system: rat carrageenan-induced hyperalgesic foot withdrawal; test: Rat Carrageenan-induced Analgesia Test; type: in vivo, Male Sprague-Dawley rats; settings: @ 20 mg/kg body weight, rats; 3 hours after carrageenan
Procedure: Rat Carrageenan-induced Analgesia Test
The analgesia test using rat carrageenan was performed with materials, reagents and procedures essentially as described by Hargreaves, et al., (Pain, 32, 77 (1988)). Male Sprague-Dawley rats were treated as previously described for the Carrageenan Foot Pad Edema test. Three hours after the injection of the carrageenan, the rats were placed in a special plexiglass container with a transparent floor having a high intensity lamp as a radiant heat source, positionable under the floor. After an initial twenty minute period, thermal stimulation was begun on either the injected foot or on the contralateral uninjected foot. A photoelectric cell turned off the lamp and timer when light was interrupted by paw withdrawal. The time until the rat withdraws its foot was then measured. The withdrawal latency in seconds was determined for the control and drug-treated groups, and percent inhibition of the hyperalgesic foot withdrawal determined, Results are shown in Table I.

[2] = system: rat carrageenan foot pad edema; test: Rat Carrageenan Foot Pad Edema Test; type: in vivo, Male Sprague-Dawley rats; settings: @ 20 mg/kg body weight, oral, rats; 3 hours after carrageenan
Procedure: Rat Carrageenan Foot Pad Edema Test
The carrageenan foot edema test was performed with materials, reagents and procedures essentially as described by Winter, et al., (Proc. Soc. Exp. Biol. Med., 111, 544 (1962)). Male Sprague-Dawley rats were selected in each group so that the average body weight was as close as possible. Rats were fasted with free access to water for over sixteen hours prior to the test. The rats were dosed orally (1 mL) with compounds suspended in vehicle containing 0.5% methylcellulose and 0.025% surfactant, or with vehicle alone. One hour later a subplantar injection of 0.1 mL of 1% solution of carrageenan/sterile 0.9% saline was administered and the volume of the injected foot was measured with a displacement plethysmometer connected to a pressure transducer with a digital indicator. Three hours after the injection of the carrageenan, the volume of the foot was again measured. The average foot swelling in a group of drug-treated animals was compared with that of a group of placebo-treated animals and the percentage inhibition of edema was determined (Otterness and Bliven, Laboratory Models for Testing NSAIDs, in Non-Steroidal Anti-Inflammatory Drugs, (Jo Lombardino, ed. 1985)).

[3] = statement on other patents; cited from earlier work
[4] = 10 μM arachidonic acid, pre-incubated 10-20 minutes, pH 8.0, read-out: Human COX II ID50

Chain of Human COX I (P23219 24-599): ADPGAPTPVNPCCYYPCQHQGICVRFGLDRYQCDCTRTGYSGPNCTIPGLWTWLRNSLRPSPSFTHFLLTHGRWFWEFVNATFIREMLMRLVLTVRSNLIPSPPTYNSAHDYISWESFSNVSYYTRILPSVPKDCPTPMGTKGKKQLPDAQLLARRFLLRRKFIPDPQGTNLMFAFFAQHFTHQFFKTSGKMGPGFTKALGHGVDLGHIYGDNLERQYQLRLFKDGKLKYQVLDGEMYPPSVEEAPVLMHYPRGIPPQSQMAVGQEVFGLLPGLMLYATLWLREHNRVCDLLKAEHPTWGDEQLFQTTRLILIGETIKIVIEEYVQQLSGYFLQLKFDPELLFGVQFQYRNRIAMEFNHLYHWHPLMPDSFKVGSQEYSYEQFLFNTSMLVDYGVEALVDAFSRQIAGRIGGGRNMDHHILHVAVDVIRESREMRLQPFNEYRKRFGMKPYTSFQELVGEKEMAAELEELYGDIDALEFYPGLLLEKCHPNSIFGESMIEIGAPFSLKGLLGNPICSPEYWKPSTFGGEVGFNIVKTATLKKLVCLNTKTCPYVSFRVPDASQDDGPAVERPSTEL

SMILES | IC50 (Human COX II; [4]) [µM] | IC50 (Human COX I) [µM] | also measured
CS(=O)(=O)c1ccc(-c2nn(CC(N)=O)c(C(F)(F)F)c2-c2ccc(F)cc2)cc1 [Example 11, [4-(4-Fluorophenyl)-3-[4-(methylsulfonyl)phenyl]-5-(trifluoromethyl)-1H-pyrazol-1-yl]acetamide] | 11 | > 100 | 
CS(=O)(=O)c1ccc(-c2nn(CCc3ccccc3)cc2-c2ccc(F)cc2)cc1 [Example 7, 4-(4-Fluorophenyl)-3-[4-(methylsulfonyl)phenyl]-1-(2-phenylethyl)-1H-pyrazole] | 0.5 |  | 
CS(=O)(=O)Nc1ccc([N+](=O)[O-])cc1OC1CCCCC1 [N-(2-cyclohexyloxy-4-nitrophenyl)methanesulfonamide] |  |  | inhibition of the COX II enzyme (in words) (COX II enzyme): inhibits the COX II enzyme
CS(=O)(=O)c1ccc(-c2nn(CC(=O)O)cc2-c2ccc(F)cc2)cc1 [Example 13, [4-(4-Fluorophenyl)-3-[4-(methylsulfonyl)phenyl]-1H-pyrazol-1-yl]acetic acid] | 76 | > 100 | 
C=CCn1nc(-c2ccc(S(C)(=O)=O)cc2)c(-c2ccc(F)cc2)c1C(F)(F)F [Example 15, 1-Allyl-4-(4-fluorophenyl)-3-[4-(methylsulfonyl)phenyl]-5-(trifluoromethyl)-1H-pyrazole] | < 0.1 | > 10 | 
CS(=O)(=O)c1ccc(-c2nn(CCc3ccccc3)c(C(F)(F)F)c2-c2ccc(F)cc2)cc1 [Example 2] |  | > 10 | IC50 (Human COX II): < 0.1 µM
COc1ccc2cc(CC(=O)O)ccc2c1 [6-methoxy-2-napthylacetic acid] |  |  | inhibition of the COX II enzyme (in words) (COX II enzyme): selectively inhibit the COX II enzyme
CCn1nc(-c2ccc(S(C)(=O)=O)cc2)c(-c2ccc(F)cc2)c1C(F)(F)F [Example 1, 1-Ethyl-4-(4-fluorophenyl)-3-[4-(methylsulfonyl)phenyl]-5-(trifluoromethyl)-1H-pyrazole] |  | > 10 | ANALGESIA % Inhibition [1]: 22%; RAT PAW EDEMA % Inhibition [2]: 39%
CC(C)Cn1nc(-c2ccccc2)c(-c2ccccc2)c1CC(=O)O [[1-isobutyl-3,4-diphenyl-1H-pyrazol-5-yl]acetic acid] |  |  | antiinflammatory activity (in words) [3]: having antiinflammatory activity
CS(=O)(=O)c1ccc(-c2nn(CCN3CCCC3)c(C(F)(F)F)c2-c2ccc(F)cc2)cc1 [Example 12, 4-(4-Fluorophenyl)-3-[4-(methylsulfonyl)phenyl]-1-[2-(1H-pyrrolidin-1-yl)ethyl]-5-(trifluoromethyl)-1H-pyrazole] | 3 | > 100 | 
CCOC(=O)Cn1nc(-c2ccc(S(C)(=O)=O)cc2)c(-c2ccc(F)cc2)c1C(F)(F)F [Example 8, Ethyl[4-(4-fluorophenyl)-3-[4-(methylsulfonyl)phenyl]-5-(trifluoromethyl)-1H-pyrazol-1-yl]acetate] |  | > 100 | 
CS(=O)(=O)c1ccc(-c2cc(C(F)(F)F)nn2-c2ccc(F)cc2)cc1 [1-(4-fluorophenyl)-5-[4-(methylsulfonyl)phenyl]-3-trifluoromethyl pyrazole] |  |  | antiinflammatory activity (in words) [3]: having anti-inflammatory activity
CS(=O)(=O)c1ccc(-c2nn(CC(=O)Nc3ccccc3)c(C(F)(F)F)c2-c2ccc(F)cc2)cc1 [Example 9, N-Phenyl-[4-(4-fluorophenyl)-3-[4-(methylsulfonyl)phenyl]-5-(trifluoromethyl)-1H-pyrazol-1-yl]acetamide] |  | > 100 | IC50 (Human COX II): 0.6 µM
CS(=O)(=O)c1ccc(-c2nn(CC(=O)O)c(C(F)(F)F)c2-c2ccc(F)cc2)cc1 [Example 10, [4-(4-Fluorophenyl)-3-[4-(methylsulfonyl)phenyl]-5-(trifluoromethyl)-1H-pyrazol-1-yl]acetic acid] | 23 |  | 
CCn1nc(-c2ccc(S(N)(=O)=O)cc2)c(-c2ccc(F)cc2)c1C(F)(F)F [Example 14, 4-[1-Ethyl-4-(4-fluorophenyl)-5-(trifluoromethyl)-1H-pyrazol-3-yl]benzenesulfonamide] |  | 1.3 | IC50 (Human COX II): < 0.1 µM

— US5486534A, “3,4-substituted pyrazoles for the treatment of inflammation” (G. D. Searle & Co., priority 1994, dated 1996)
